Laboratory results from PubChem BioAssay AID252 (DTP/NCI, 2004).
Where “and” joins values, the source holds several entries; their conditions need not be identical. Equal entries are not always repeated. Toxic doses and inconclusive results are not listed. How the source made its calls: active means survival T/C of 150% or more; inactive means T/C below 125% in these data.

Test system: BDF1 mice, intracerebral L1210 leukemia, survival T/C
Test: NCI In Vivo Anticancer Drug Screen. Data for tumor model L1210 Leukemia (intracerebral) in B6D2F1 (BDF1) mice
Conditions: higher = longer survival
Summary of the method: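 Mice carrying transplanted tumour were dosed with compound; survival was recorded and expressed as treated-group value (T) divided by vehicle-control value (C).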

Measured: T/C

O=C1N[C@@H]([C@H]2CC[C@H](Cl)CN2)C(=O)N[C@H]1[C@H]1CC[C@H](Cl)CN1
inactive: endpoint: mean survival time, dose: 0.5 mg/kg/injection, schedule: Q01DX009 (ip), vehicle: saline 110 % of control | endpoint: mean survival time, dose: 1.0 mg/kg/injection, schedule: Q01DX001 (ip), vehicle: saline 102 % of control | endpoint: mean survival time, dose: 1.0 mg/kg/injection, schedule: Q01DX009 (ip), vehicle: saline 118 % of control | endpoint: mean survival time, dose: 2.0 mg/kg/injection, schedule: Q01DX001 (ip), vehicle: saline 103 % of control and 100 % of control | endpoint: mean survival time, dose: 4.0 mg/kg/injection, schedule: Q01DX001 (ip), vehicle: saline 103 % of control and 119 % of control | endpoint: mean survival time, dose: 8.0 mg/kg/injection, schedule: Q01DX001 (ip), vehicle: saline 105 % of control and 123 % of control

O=NN(CCCl)C(=O)NC1C=CCCC1 (stereo unspecified)
inactive: endpoint: mean survival time, dose: 15.0 mg/kg/injection, schedule: Q01DX001 (ip), vehicle: other 110 % of control | endpoint: mean survival time, dose: 20.0 mg/kg/injection, schedule: Q01DX001 (ip), vehicle: other 118 % of control | endpoint: mean survival time, dose: 25.0 mg/kg/injection, schedule: Q01DX001 (ip), vehicle: other 122 % of control | endpoint: mean survival time, dose: 30.0 mg/kg/injection, schedule: Q01DX001 (ip), vehicle: other 118 % of control | endpoint: mean survival time, dose: 35.0 mg/kg/injection, schedule: Q01DX001 (ip), vehicle: other 123 % of control

O=NN(CCCl)C(=O)NC(Cc1ccccc1)C(=O)O (stereo unspecified)
inactive: endpoint: mean survival time, dose: 18.0 mg/kg/injection, schedule: Q01DX001 (ip), vehicle: gum acacia 119 % of control | endpoint: mean survival time, dose: 28.0 mg/kg/injection, schedule: Q01DX001 (ip), vehicle: gum acacia 119 % of control | endpoint: mean survival time, dose: 42.0 mg/kg/injection, schedule: Q01DX001 (ip), vehicle: gum acacia 117 % of control | endpoint: mean survival time, dose: 63.0 mg/kg/injection, schedule: Q01DX001 (ip), vehicle: gum acacia 120 % of control | endpoint: mean survival time, dose: 112.0 mg/kg/injection, schedule: Q01DX001 (ip), vehicle: gum acacia 103 % of control

O=NN(CCCl)C(=O)Nc1ccc(Cn2ccc(=O)[nH]c2=O)cc1
inactive: endpoint: mean survival time, dose: 18.0 mg/kg/injection, schedule: Q01DX001 (ip), vehicle: carboxymethylcellulose (CMC) 109 % of control | endpoint: mean survival time, dose: 26.0 mg/kg/injection, schedule: Q01DX001 (ip), vehicle: carboxymethylcellulose (CMC) 110 % of control | endpoint: mean survival time, dose: 40.0 mg/kg/injection, schedule: Q01DX001 (ip), vehicle: carboxymethylcellulose (CMC) 109 % of control | endpoint: mean survival time, dose: 60.0 mg/kg/injection, schedule: Q01DX001 (ip), vehicle: carboxymethylcellulose (CMC) 122 % of control | endpoint: mean survival time, dose: 90.0 mg/kg/injection, schedule: Q01DX001 (ip), vehicle: carboxymethylcellulose (CMC) 119 % of control

O=C1CN=C(c2ccc[nH]2)c2cc(Cl)ccc2N1
inactive: endpoint: mean survival time, dose: 248.0 mg/kg/injection, schedule: Q01DX009 (sc), vehicle: Klucel (hydroxypropylcellulose) (HPC) 103 % of control | endpoint: mean survival time, dose: 377.0 mg/kg/injection, schedule: Q01DX009 (sc), vehicle: Klucel (hydroxypropylcellulose) (HPC) 108 % of control | endpoint: mean survival time, dose: 571.0 mg/kg/injection, schedule: Q01DX009 (sc), vehicle: Klucel (hydroxypropylcellulose) (HPC) 100 % of control | endpoint: mean survival time, dose: 858.0 mg/kg/injection, schedule: Q01DX009 (sc), vehicle: Klucel (hydroxypropylcellulose) (HPC) 108 % of control | endpoint: mean survival time, dose: 1300.0 mg/kg/injection, schedule: Q01DX009 (sc), vehicle: Klucel (hydroxypropylcellulose) (HPC) 122 % of control | endpoint: median survival time, dose: 1.75 mg/kg/injection, schedule: Q01DX009 (ip), vehicle: other 102 % of control | endpoint: median survival time, dose: 3.15 mg/kg/injection, schedule: Q01DX009 (ip), vehicle: other 102 % of control | endpoint: median survival time, dose: 6.3 mg/kg/injection, schedule: Q01DX009 (ip), vehicle: other 106 % of control | endpoint: median survival time, dose: 12.5 mg/kg/injection, schedule: Q01DX009 (ip), vehicle: other 102 % of control | endpoint: median survival time, dose: 25.0 mg/kg/injection, schedule: Q01DX009 (ip), vehicle: other 110 % of control
